This is an account of results in patent US11219628B2, “Replacement of cytotoxic preconditioning before cellular immunotherapy” (priority 2017, dated 2022).

Entries after “also recorded” stand apart in the source; their conditions may differ. Read-outs that look alike come from different tables or passages of the source. Bounds are passed on as bounds.

Data set [1] has as its system RBC. Particulars: doses of about 24 mg/50 kg; cited from earlier work.
For data set [2], the system named is peripheral blood lymphocytes. Briefly: Repeat of Hinrichs dexamethasone dosing: peripheral blood lymphocytes by flow cytometry. It counts as in vivo. More on the design: CD3+CD4+CD25+FoxP3+ Tregs reduction / CD3+ T lymphocytes reduction / CD3+CD4+ T lymphocytes reduction / CD3+CD8_T lymphocytes reduction: concentration or dose not given beside the values. The text has this:
Prior studies into the use of steroids to precondition a patient prior to ACT had shown this approach to be ineffective. […] In contrast, Hinrichs discloses that pretreatment with radiation did enhance ACT tumor killing. […] However, while Hinrichs reported 99% lymphodepletion, no enhancement of ACT tumor killing was observed. In contrast, Hinrichs observed that radiation does enhance ACT tumor killing. […] In contrast, CD3+ T lymphocytes were reduced from […] live events, only a non-significant […] reduction. CD3+CD4+ T lymphocytes were reduced from 1779 to 902 live events, only a non-significant 50% reduction. CD3+CD8_T lymphocytes were reduced from 1318 to 1277 live events, only a non-significant 3% reduction. CD3+CD4+CD25+FoxP3+ Tregs were reduced from 198 to 70 live events, only a non-significant 65% reduction. And natural killer (NK) cells were reduced from 1153 to 958 live events, only a non-significant 17% reduction.

For data set [3], the system named is peripheral blood T and B cells, germinal centers and marginal zones, plasma IL-2 and IL-15. Description: Summary statements: acute dexamethasone doses needed for in vivo NTLA effects. The source says: The effects of glucocorticoids are complex and depend on each specific glucocorticoid's affinity for the GR and mineralocorticoid receptor (MR). Additionally, there are now 9 known isoforms of the cytosolic GR and additional membrane expressed GR receptors that have been identified but which are not fully characterized. […] In general, at low doses typically used for chronic therapy, glucocorticoids have been reported to redistribute lymphocytes from the peripheral blood into the bone marrow, at medium doses glucocorticoids have been reported to cause leukocytosis thought to be a redistribution of leukocytes from the bone marrow, spleen and thymus into the peripheral blood, and at high doses glucocorticoids have a lymphotoxic action on lymphocytes by triggering apoptosis and necroptosis.

In data set [4] the test system is multiple myeloma and other cancer cell lines. Description: Direct tumor killing by acute dexamethasone. It counts as in vivo. Particulars: about 1.6 mg/kg HED in a 48 hour period. The text has this:
The desired in vivo effects of exemplary NTLAs would include reductions in germinal center and marginal zones in secondary lymphatics, direct tumor killing of some cancers particularly; multiple myeloma, renal cell carcinoma, leukemia and lymphoma, non-small cell lung cancer (NSCLC), prostate and breast cancer; depletion of all peripheral blood lymphocyte types, lack of lymphocyte redistribution to the BM or other organs, and elevation of plasma cytokines including IL-2, and/or IL-7, and/or IL-12, and/or IL-15 to levels preferably of 20 pg/ml or greater, among others.

The test system of data set [5] is IL-2, IL-15, IL-6. The class given is in vivo, human. Particulars: oral 3 mg/kg dexamethasone base; 48 hours. As for the experimental part:
(FIG. 12, FIG. 13, FIG. 14 and FIG. 15 show data from the same four human patients.)
Blood was drawn before drug treatment and 48 hours post-treatment for CBC analysis and flow cytometry to determine lymphocyte and other blood cell populations. Serum was analyzed for cytokine levels. For one patient, pre-treatment CBCs were not drawn and thus normalized flow cytometry data is shown for only 3 patients.

The subject of data set [6] is blood lymphocyte populations, HSCs.
From the text: Each patients pre-treatment values are connected to post-treatment values by a connecting line. CD4+ cells are also CD3+. CD8+ cells are also CD3+.
Each patient's pre-treatment values are connected to post-treatment values by a connecting line. Tregs are identified by being CD3+CD4+CD25+FoxP3+. B lymphocytes are identified by being CD3-CD19+.
Each patient's pre-treatment values are connected to post-treatment values by a connecting line. NK cells are identified by being CD3-CD16/56+. HSCs are identified by being CD34+CD38-.
Blood was drawn before drug treatment and 48 hours post-treatment for CBC analysis and flow cytometry to determine lymphocyte and other blood cell populations. […] For one patient, pre-treatment CBCs were not drawn and thus normalized flow cytometry data is shown for only 3 patients.
The subject of data set [7] is MOPC315 cells. Particulars: mouse, in vivo.
From the text: (§1) The mouse multiple myeloma MOPC315 cell line available from ATCC is tail vein inoculated to immunocompetent Balbc mice at 2×10^6 cells.
(§2) Balb/cJ (H-2d) and B10.D2 (H-2d) mice were purchased from Jackson Laboratory (Bar Harbor, Me., USA). Mice were used when they were between 10- to 14-wk-old. […] Red blood cells are lysed using sterile filtered RBC lysis buffer (eBioscience, San Diego, USA) and cells are washed, resuspended in phosphate buffered saline (PBS) containing 3% FBS, and filtered through a 70 mM nylon membrane. For CD8 T-cell depletion, the “Mouse CD8a positive selection kit” (Stem Cell, Grenoble, France) are used according to the manufacturer's EASYSEP depletion protocol. Finally, cells are suspended in 200 ml PBS for i.v. injection. Balbc mice are transplanted by i.v. tail vein injection of 1×10^7 bone marrow cells and 7×10^7 splenocytes from donor B10.D2 mice between 10 and 30 days after MOPC315 inoculation.
(§3) For allogeneic NK cell administration, fully functional NK cells are isolated from donor B10.D2 mice using commercially available kits such as the one from Miltenyi. Alternatively, mouse NK cells can be purchased from ATCC (KIL cells). The NK Cell Isolation Kit was developed for the isolation of untouched NK cells from single-cell suspensions of murine spleen. Non-NK cells, i.e. T cells, dendritic cells, B cells, granulocytes, macrophages, and erythroid cells are magnetically labeled by using a cocktail of biotin-conjugated antibodies and Anti-Biotin MicroBeads. Isolation of highly pure unlabeled NK cells is achieved by depletion of non-target cells. The kit has been optimized to give outstanding purities in C57BL/6J mice. 1×10^7 isolated NK cells are transplanted by IV tail vein injection between 10 and 30 days after MOPC315 inoculation.
The conditions of data set [8]: cited from earlier work.
In data set [9] the test system is neutrophil function. As to conditions: cited from earlier work.
The test system of data set [10] is germinal centers in spleen. Briefly: Mouse spleen germinal centers by FITC-PNA immunofluorescence.
Data set [11] has as its system blood lymphocytes, neutrophils, RBCs, platelets. Briefly: Rat complete blood counts 48 hours after acute dexamethasone. As to conditions: IV or PO 20, 40 or 80 mg/kg; for neutrophil number: all doses.
Data set [12] has as its system blood lymphocyte populations, neutrophils, RBCs, platelets. Description: Mouse CBC and flow cytometry 48 hours after oral acute dexamethasone. As to conditions: oral HED 3, 6, 9 or 12 mg/kg. In general terms: A flow cytometer gives signals particle by particle.
From the text: Treg lymphocytes were identified by being CD3+CD4+CD25+FoxP3+.
NK cells were identified by being CD3−CD49b+. B lymphocytes were identified by being CD3−B220+.
Data set [13] deals with MOPC315 cells. Briefly: Immunocompetent mouse model of multiple myeloma: preconditioning before alloHSCT or NK cells. As to conditions: preconditioning before alloHSCT.
From the text: as §1, §2, §3
Data set [14] relates to spleen weights, germinal centers. As to conditions: po daily for 13 weeks, mice; cited from earlier work.
For data set [15] the following is noted: cited from earlier work. This is another data set of the same source.
Data set [16] concerns germinal centers. Particulars: 1 to 4 weeks of daily dosing; up to about 10 mgs/kg/day; cited from earlier work.
Data set [17] has as its system Tregs. Particulars: in vivo; cited from earlier work.
[18] abbreviates: Hinrichs dosing, non-significant.

Regarding `C[C@H]1C[C@H]2[C@@H]3CCC4=CC(=O)C=C[C@]4(C)[C@@]3(F)[C@@H](O)C[C@]2(C)[C@@]1(O)C(=O)CO` [Betamethasone], the “effect on RBC” value in data set [1] is listed as “reduces RBC”.

As to `C[C@@H]1C[C@H]2[C@@H]3CCC4=CC(=O)C=C[C@]4(C)[C@@]3(F)[C@@H](O)C[C@]2(C)[C@@]1(O)C(=O)CO` [Dexamethasone, dexamethasone], in [2] (setting [18]), the “CD3+ T lymphocytes reduction” value turned out to be 33%, the “CD3+CD4+ T lymphocytes reduction” value worked out at 50%, the “CD3+CD4+CD25+FoxP3+ Tregs reduction” value is reported as 65% and the “CD3+CD8_T lymphocytes reduction” value was determined as 3%. The “natural killer (NK) cells reduction” value in data set [2] (setting [18]) is given as 17%. In [2] (Hinrichs dosing, reduced from 198), the “CD3+CD4+CD25+FoxP3+ Tregs, live events” value is recorded as 70 live events. In addition, the “natural killer (NK) cells, live events” value in data set [2] (Hinrichs dosing, reduced from 1153) is on record as 958 live events. Also, the “CD3+CD8_T lymphocytes, live events” value in data set [2] (Hinrichs dosing, reduced from 1318) worked out at 1277 live events. Also, the “CD3+CD4+ T lymphocytes, live events” value in data set [2] (Hinrichs dosing, reduced from 1779) was 902 live events. Further, in [2] (intraperitoneal 10 mg/kg (HED 0.81 mg/kg) on day −6, −4, −2, reduced from 3370), the “CD3+ T lymphocytes, live events” value amounted to 2441 live events. Besides, the “B lymphocytes reduction vs vehicle control” value in data set [2] (intraperitoneal 10 mg/kg (HED 0.81 mg/kg) on day −6, −4, −2, significant) was determined as 65%. The “B lymphocytes (CD3-CD19+ cells) in the peripheral blood, live events by flow cytometry” value in data set [2] (intraperitoneal 10 mg/kg (HED 0.81 mg/kg) on day −6, −4, −2, vehicle control 10680) is reported as 3733 live events. Besides, the “acute oral dose necessary to reduce peripheral blood T and B cells” value in data set [3] (48 hours after administration) is reported as no less than 3 mg/kg. For the same molecule, the “return to baseline levels of peripheral blood T and B cells” value in [3] (acute oral doses of 3 mg/kg or greater) fell in the range of 5 to 14 days after dosing. In addition, in [3] (in vivo), the “acute dose required for lymphodepletion” value is given as greater than 3 mg/kg HED; the “acute dose that reduces germinal centers and marginal zones in secondary lymphatics” value is reported as no less than 6 mg/kg HED; the “dose of dexamethasone base at which plasma IL-2 and IL-15 cytokine elevations are observed” value is no less than 3 mg/kg HED. In addition, the direct tumor killing result in data set [4] is recorded as “about 50%”. In addition, the “patients with increased serum IL-2 and/or IL-15 levels” value in data set [5] worked out at 100%. In data set [6] (3 mg/kg HED), this molecule had a patients showing lymphocytosis of 50%. Moreover, the “hematopoietic stem cells (CD34+CD38-)” value in data set [6] (human, in vivo, po, 3 mg/kg) is “spared”. In data set [7], the “toxicity compared to standard CyFlu preconditioning” value is on record as “much less toxicity” and the “toxicity compared to standard repeat CyFlu preconditioning” value is reported as “less toxicity”. The lowest lethal dose in [8] (healthy mice) was 114 mg/kg HED. Also, the lowest lethal dose in data set [8] (tumor bearing mice) is on record as 43 mg/kg HED. The neutrophil function entry in data set [9] is “do not inhibit neutrophil function”. In addition, the “HED at which germinal centers are reduced in mice” value in data set [10] is no less than 3 mg/kg HED. In [11], the Hct result is recorded as “not affected”, the HgB result is reported as “not affected”, the RBCs result is given as “not affected” and the platelets entry is listed as “not affected”. For the same molecule, in data set [11], the neutrophil number entry is on record as “not reduced; also recorded: increased by all doses”. Further, the neutrophil number entry in [11] (listed as Dex) is on record as “does not reduce”. In [12], the RBCs entry is listed as “spared”, the neutrophils entry is “spared” and the platelets result is “spared”. In [12] (dose for the value not stated), the “B lymphocytes reduction compared to placebo” value is 83%, the “CD3+ T lymphocytes reduction compared to placebo” value is listed as 65%, the “CD4+ T lymphocytes reduction compared to placebo” value came out at 75% and the “CD8+ T lymphocytes reduction compared to placebo” value turned out to be 56%. In addition, in data set [12] (dose for the value not stated), the “Tregs reduction compared to placebo” value is 78%, the “absolute lymphocyte count reduction compared to placebo” value came out at 84% and the “natural killer cells (NK) reduction compared to placebo” value was 87%. Moreover, in data set [12] (listed as Dex), the RBCs entry was “spares”, the neutrophils entry was “sparing” and the platelets entry was “spares”. The “body weights after preconditioning (in words)” value in data set [13] is given as “not reduced”.

As for `C[C@]12C=CC(=O)C=C1CC[C@@H]1[C@@H]2C(=O)C[C@@]2(C)[C@H]1CC[C@]2(O)C(=O)CO` [Prednisone], in [14], the “dose above which germinal centers are significantly impacted” value was “over 2.5 mg/kg” and the “dose above which spleen weights are significantly impacted” value was “over 2.5 mg/kg”. In addition, the biologic half-life result in [15] is “about 20 hours”.

Consider `C=CC[C@@H]1/C=C(\C)C[C@H](C)C[C@H](OC)[C@H]2O[C@@](O)(C(=O)C(=O)N3CCCC[C@H]3C(=O)O[C@H](/C(C)=C/[C@@H]3CC[C@@H](O)[C@H](OC)C3)[C@H](C)[C@@H](O)CC1=O)[C@H](C)C[C@@H]2OC` [Tacrolimus], for which the “daily dosing required to reduce germinal centers” value in data set [16] was no less than 0.48 mg/kg/day. The neutrophil function result in data set [9] is “inhibits neutrophil function”.

For the molecule methylprednisone, in data set [17], the “effect on Tregs” value is reported as “increases Tregs”.
